{"source": "patent US6191117A", "about": "“Methods of producing weight loss and treatment of obesity” (priority 2000, dated 2001)", "origin": "cited, not measured here", "key": {"[1]": {"system": "NMDA receptor"}, "[2]": {"system": "epileptic patients"}, "[3]": {"system": "sodium channel"}, "[4]": {"system": "epileptic patients", "details": "human, in vivo"}, "[5]": {"system": "GABA receptor"}, "[6]": {"system": "kainate/AMPA receptor"}, "[7]": {"system": "L-type calcium channels"}, "[8]": {"system": "patients treated for epilepsy"}}, "data": [{"smiles": "NC(=O)OCC(COC(N)=O)c1ccccc1", "note": "[FBM]", "values": [{"measurement": "activity at the NMDA receptor", "setting": "[1]", "value": "glycine site NMDA antagonist"}, {"measurement": "aplastic anemia and hepatic failure, 1994 reports", "setting": "[2]; 1994 reports", "value": "causing aplastic anemia and hepatic failure"}, {"measurement": "thrombocytopenia and neutropenia", "setting": "[2]; add-on therapy, Lennox-Gestalt Syndrome, prior to FDA approval", "value": "Several mild cases of thrombocytopenia and neutropenia"}, {"measurement": "aplastic anemia or hepatic dysfunction after FDA warning", "setting": "[2]; adjunctive FBM, refractory epilepsy, serum levels monitored", "value": "No cases of aplastic anemia or hepatic dysfunction"}, {"measurement": "safety of long usage", "setting": "[2]; adjunctive therapy, at least one year", "value": "relatively safe after usage for at least one year"}, {"measurement": "aplastic anemia or hepatic dysfunction prior to approval", "setting": "[2]; prior to drug approval", "value": "no reported cases of aplastic anemia or hepatic dysfunction"}, {"measurement": "aplastic anemia attributable to FBM monotherapy", "setting": "[2]; recent analysis", "value": "only several cases of aplastic anemia"}, {"measurement": "drug interactions", "setting": "[2]; with other antiepileptic drugs", "value": "elevation of dilantin, depakote, phenobarbitol levels and the toxic epoxide metabolite of tegretol"}, {"measurement": "action on sodium channel", "setting": "[3]", "value": "modulation of the Na++ channel conductance"}, {"measurement": "cognition and fine motor function", "setting": "[4]", "value": "increase both cognition and fine motor function"}, {"measurement": "action on GABA", "setting": "[5]", "value": "facilitation of the GABA receptor"}, {"measurement": "activity at the kainate/AMPA receptor", "setting": "[6]", "value": "interaction at the kainate/AMPA receptor"}, {"measurement": "interaction at L-type calcium channels", "setting": "[7]", "value": "an interaction at the L-type calcium channels"}, {"measurement": "weight loss", "setting": "[8]; FBM monotherapy, non-obese patients", "value": 5, "unit": "%"}, {"measurement": "course of weight loss", "setting": "[8]; add-on therapy, partial epilepsy, non-obese patients", "value": "transient and returned to baseline after twenty weeks"}, {"measurement": "anorexia and weight loss", "setting": "[8]; patients treated for epilepsy", "value": "induce anorexia and weight loss"}]}]}
